Where two headings read alike, the source gives them in different places.
Legend:
[1] = tested on: glucocorticoid receptor (GR)-dependent transcriptional activity, MDA-kb2 cells; test: GR-mediated transcription, luciferase reporter in MDA-kb2 cells (dexamethasone); conditions: DEX 100 nM
[2] = tested on: ERα-mediated transcription (3xERE-luciferase), T47D-KBluc cells; test: ER-dependent transcriptional activity, 3xERE-luciferase reporter in T47D-KBluc cells; conditions: for effect on E2-induced luciferase activity: until dropping to 20% Emax
[3] = tested on: alkaline phosphatase (ALP) activity in Ishikawa cells; test: Alkaline phosphatase assay; type: cell-based, human; conditions: E2 10 nM
Method: Human endometrium cells ([…]) were cultured in MEM without phenol red with Earle's Salts culture, which was supplemented with estrogen-deprived 10 DCC-FBS du-ring 5 days. […] Cells were washed with ice-cold PBS, and Alkaline Phosphatase (ALP) activity was measured by using ALP Assay Kit (Abcam, Cambridge, MA, USA). The substrate p-nitrophenyl phosphate (pNPP) and the ALP enzyme were used to detect ALP activity by the analysis of the optical density at 405 nm in the iMark microplate Reader (Bio-Rad, Irvine, CA, USA). […] Protein concentration was quantified with the bicinchoninic acid assay (BCA) kit (Bio-Rad).

[4] = tested on: T47D estrogen-depleted cells; test: E2-induced proliferation of estrogen-depleted cells (AUC of growth kinetics); type: cell-based; conditions: for EC50: Homo sapiens, T47D, 240 h, read-out: AUC (%) EC50 (μM)
Method: To monitor long-term growth, human ER+ BC (T47-D, MCF-7, MCF-7/BUS), ER+ endometrial (Ishiwaka, High Point, NC, USA), or non-malignant breast (MCF-10A) cells were seeded at 3000–6000 cells per well. […] When indicated, cells were estrogen-deprived in a 10DCC-FBS supplemented medium for one week. […] Cytotoxicity was monitored by using YOYO-1 (Invitrogen, Waltham, MA, USA). Cell proliferation and cytotoxicity were monitored by sequential real-time microphotographs in an IncuCyte HD real-time imaging system (Essen BioScience, Hertfordshire, UK) for 5–10 days. The area under the curve (AUC) was then analyzed to know both the kinetics and dose-effect relationships. […] Next, cells were treated with VEH (0.05% DMSO) or test compounds for 5–10 days. Spheroid size and cell cytotoxicity were recorded with the Incucyte SX5 Live-Cell Analysis Instrument (Sartorius AG, Göttingen, Germany). To calculate the spheroid growth area, confluence measurements were taken considering the largest brightfield object area (µm^2). Cytotoxicity was monitored by using YOYO-1 (Essen Bioscience, Hertfordshire, UK).

VERO cells = test: MTT cell viability assay; type: cell-based, monkey; conditions: 72 h, 10%FBS growth media
Method: (§1) Straightforward, the tetrazolium salt 3-(4,5-methyltiazol-2yl-)-2,5diphenyl-tetrazolium bromide (MTT) (Applichen, Darmstadt, Germany) was added to cells, incubated for 2–4 h at 37 °C, and lysed in 10% SDS.

T47D cells = test: MTT cell viability assay; type: cell-based, human; conditions: 72 h, 10%FBS growth media
Method: Straightforward, the tetrazolium salt 3-(4,5-methyltiazol-2yl-)-2,5diphenyl-tetrazolium bromide (MTT) (Applichen, Darmstadt, Germany) was added to cells, incubated for 2–4 h at 37 °C, and lysed in 10% SDS. The mitochondrial metabolization of the tetrazolium salt was determined by the analysis of the optical density at 595 nm, measured with the iMark microplate Reader (Bio–Rad, Irvine, CA, USA).

MCF-7 cells = test: MTT cell viability assay; type: cell-based, human; conditions: 10%FBS growth media
Method: as §1

SK-BR-3 cells = test: MTT cell viability assay; type: cell-based, human; conditions: 10%FBS growth media
Method: as §1

Hs-578T cells = test: MTT cell viability assay; type: cell-based, human; conditions: 72 h, 10%FBS growth media
Method: as §1

BT-549 cells = test: MTT cell viability assay; type: cell-based, human; conditions: 10%FBS growth media
Method: as §1

MCF-7/BUS cells = test: MTT cell viability assay; type: cell-based, human; conditions: 72 h, read-out: IC50 (μM) MCF-7/BUS
Method: as §1

MCF-10A cells = test: MTT cell viability assay; type: cell-based, human; conditions: 72 h, 10%FBS growth media
Method: as §1

Ishikawa cells = test: MTT cell viability assay; type: cell-based, human; conditions: read-out: IC50 (μM) ISHIKAWA, 72 h, 10%FBS growth media
Method: as §1

MDA-MB-231 cells = test: MTT cell viability assay; type: cell-based, human; conditions: 10%FBS growth media
Method: as §1

[5] = tested on: ERα, pS2 and PR mRNA in MCF-7 cells; test: Quantitative real-time PCR of ERα-regulated genes; type: cell-based, human; conditions: 3 h pretreatment, E2 10 nM 24 h; 32 5 µM, 35 10 µM, ICI 0.1 µM, 4-OHTAM 1 µM
Method: (§2) For gene expression analysis, MCF-7 and Ishikawa cells were deprived of steroid hormones by using a 10DCC-FBS medium for five days. Then, 1,500,000 cells/dish were seeded in 5DCC-FBS, followed by treatment with test compounds. Total RNA was isolated by using TRItidy G™ (Panreac Applichem ITW Reagents, Darmstadt, Germany). The concentration and purity of RNA were determined with a NanoDrop 1000 spectrophotometer (Wilmington, NC, USA). Then, 1 µg of total RNA was reversed and amplified with the iScriptTM kit (Bio-Rad) following the manufacturer’s protocol. SYBR Green PCR Master mix (Applied Biosystems, Bedford, MA, USA) reagent and exon-specific primers for ERα were used for Real-time quantitative PCR (qPCR). Gene expression was analyzed with an Mx3005P qPCR System (Agilent, Santa Clara, CA, USA), and cycle threshold values were calculated using MxPro qPCR Software (Agilent, CA, USA). Target gene expression was normalized to the expression of the 18S housekeeping gene. Data were expressed as relative expression values according to the comparative CT method for qPCR [42].

[6] = tested on: ERα, pS2 and PR mRNA in Ishikawa cells; test: Quantitative real-time PCR of ERα-regulated genes; type: cell-based, human; conditions: 3 h pretreatment, E2 10 nM 24 h
Method: as §2

Structure (SMILES) | effect on E2-induced luciferase activity [2] | IC50 (T47D cells; Homo sapiens, T47D) | IC50 (MCF-7 cells; Homo sapiens, MCF7, 72 h) | IC50 (SK-BR-3 cells; Homo sapiens, SK-BR-3, 72 h) | IC50 (Hs-578T cells; Homo sapiens, Hs-578T) | IC50 (Ishikawa cells; Homo sapiens, Ishikawa) | IC50 (MDA-MB-231 cells; Homo sapiens, MDA-MB-231, 72 h) | also measured
C[C@@H]1C[C@H]2[C@@H]3CCC4=CC(=O)C=C[C@]4(C)[C@@]3(F)[C@@H](O)C[C@]2(C)[C@@]1(O)C(=O)CO [DEX, dexamethasone, reference compound] | – | – | – | – | – | – | – | maximal luciferase activity or Emax [1]: 42.07 ± 14.33 fold induction
C[C@]12CC[C@@H]3c4ccc(O)cc4CC[C@H]3[C@@H]1CC[C@@H]2O [E2, 17β-estradiol, reference compound] | – | – | – | – | – | – | – | maximal activity (Emax) reached by E2 ([2]; E2+VEH): 104.90 ± 2.01%; EC50 ([2]; Homo sapiens, read-out: EC50 of E2, ER-dependent transcriptional activity, E2 alone (E2+VEH)): 4.48 ± 0.42 pM; Emax ([2]; Homo sapiens, read-out: maximal activity (Emax) reached by E2, E2+VEH): 99.8 ± 8.44%; maximal luciferase activity or Emax ([2]; induced by E2): 15.19 ± 1.71 fold induction; EC50 ([2]; read-out: EC50 of E2, ER-dependent transcriptional activity, E2 alone (E2+VEH)): 4.57 ± 0.42 pM; increase of ALP activity [3]: 30 fold; EC50 [4]: 0.0071 nM
C[C@]12CC[C@@H]3c4ccc(O)cc4C[C@@H](CCCCCCCCC[S+]([O-])CCCC(F)(F)C(F)(F)F)[C@H]3[C@@H]1CC[C@@H]2O (stereo partly drawn) [ICI, ICI-182,780, reference compound] | – | – | – | – | – | – | – | IC50 (VERO cells): > 10 µM; E/Emax (%) VEH ([2]; compounds 10 µM, 3 h pretreatment, then vehicle 16–24 h, relative to Emax of E2): −9.15 ± 3.99%; IC50 ([2]; read-out: IC50 (µM) on E2-induced luciferase activity, dose-response, 3 h pretreatment, then E2 0.1 nM 16–24 h): 0.00019 µM; IC50 ([2]; read-out: IC50 on E2-induced ER-dependent transcriptional activity, co-incubation with E2): 0.0002 ± 8e-05 µM; IC50 (T47D cells): 14.9 ± 5.19 µM; IC50 ([4]; presence of E2 (0.1 nM), 10 days): 0.000283 µM; IC50 (MCF-7 cells; 72 h): 0.52 ± 0.16 µM; IC50 (SK-BR-3 cells; 72 h): > 50 µM; IC50 (Hs-578T cells): > 25 µM; IC50 (BT-549 cells; 72 h): > 25 µM; IC50 (MCF-7/BUS cells; 10%FBS growth media, MTT): 0.0006 µM; IC50 (MCF-10A cells): > 10 µM; IC50 (Ishikawa cells): > 10 µM; IC50 (MDA-MB-231 cells; 72 h): > 25 µM; effect on E2-induced mRNA expression [5]: blocked E2-induced mRNA levels of PR and pS2; effect on E2-induced mRNA expression [6]: blocked E2-induced mRNA levels of PR and pS2
CCCc1c(-c2ccc(O)cc2)nn(-c2ccc(O)cc2)c1-c1ccc(O)cc1 [PPT, 1,3,5-tris(4-hydroxyphenyl)-4-propyl-1H-pyrazole, reference compound] | – | – | – | – | – | – | – | EC50 [4]: 0.157 nM
O=C1C(c2ccccc2)=CC(O)(c2ccccc2)N1C1CCCCC1 (stereo not drawn) [compound 4, 1-cyclohexyl-5-hydroxy-3,5-diphenyl-1H-pyrrol-2(5H)-one] | reduced E2-induced luciferase activity | > 10 µM | > 10 µM | > 10 µM | > 10 µM | > 10 µM | > 10 µM | IC50 (VERO cells; Primates, Vero): > 25 µM; IC50 (MCF-10A cells; Homo sapiens, MCF-10A): 7.17 ± 2.07 µM
COc1ccc(C2(O)C=C(c3ccccc3)C(=O)N2Cc2ccccc2)cc1 (stereo not drawn) [compound 8, 1-benzyl-5-hydroxy-5-(4-methoxyphenyl)-3-phenyl-1H-pyrrol-2(5H)-one] | reduced E2-induced luciferase activity | – | – | – | – | – | – | –
COc1ccc(N2C(=O)C(c3ccccc3)=CC2(O)c2ccc(OC)cc2)cc1 (stereo not drawn) [compound 9, 5-hydroxy-1,5-bis(4-methoxyphenyl)-3-phenyl-1H-pyrrol-2(5H)-one] | – | > 10 µM | > 10 µM | > 10 µM | > 10 µM | – | > 10 µM | IC50 (BT-549 cells; Homo sapiens, BT-549, 72 h): > 10 µM; IC50 (MCF-7/BUS cells; Homo sapiens, MCF7/BUS): > 10 µM
COc1ccc(C2=CC(O)(c3ccccc3)N(C3CCCCC3)C2=O)cc1F (stereo not drawn) [compound 16, 1-cyclohexyl-3-(3-fluoro-4-methoxyphenyl)-5-hydroxy-5-phenyl-1H-pyrrol-2(5H)-one] | – | > 10 µM | > 10 µM | > 10 µM | > 10 µM | > 10 µM | > 10 µM | estrogenic effect on ER-dependent transcriptional activity ([2]; 10 μM, absence of E2): partial induction of ER-dependent transcriptional activity; IC50 (BT-549 cells; Homo sapiens, BT-549, 72 h): > 10 µM; IC50 (MCF-7/BUS cells; Homo sapiens, MCF7/BUS): > 10 µM
O=C1C(c2ccc3c(c2)OCO3)=CC(O)(c2ccccc2)N1Cc1ccccc1 (stereo not drawn) [compound 26, 3-(benzo[d][1,3]dioxol-5-yl)-1-benzyl-5-hydroxy-5-phenyl-1H-pyrrol-2(5H)-one] | reduced E2-induced luciferase activity | > 10 µM | > 10 µM | > 10 µM | > 10 µM | 10.1 ± 0.11 µM | 9.71 ± 0.3 µM | –
COc1ccc(N2C(=O)C(c3cccc([N+](=O)[O-])c3)=CC2(O)c2cccc(OC)c2)cc1 (stereo not drawn) [compound 38, 5-hydroxy-5-(3-methoxyphenyl)-1-(4-methoxyphenyl)-3-(3-nitrophenyl)-1H-pyrrol-2(5H)-one] | reduced E2-induced luciferase activity | > 10 µM | > 10 µM | > 10 µM | > 10 µM | > 10 µM | > 10 µM | IC50 (VERO cells; Primates, Vero): > 25 µM; IC50 (MCF-10A cells; Homo sapiens, MCF-10A): > 10 µM
COc1ccc(C2=CC(O)(c3cccc([N+](=O)[O-])c3)N(Cc3ccccc3)C2=O)cc1 (stereo not drawn) [compound 40, 1-benzyl-5-hydroxy-3-(4-methoxyphenyl)-5-(3-nitrophenyl)-1H-pyrrol-2(5H)-one] | reduced E2-induced luciferase activity | – | – | – | – | – | – | –
COc1cccc(C2=CC(O)(c3ccc([N+](=O)[O-])cc3)N(Cc3ccccc3)C2=O)c1 (stereo not drawn) [compound 46, 1-benzyl-5-hydroxy-3-(3-methoxyphenyl)-5-(4-nitrophenyl)-1H-pyrrol-2(5H)-one] | reduced E2-induced luciferase activity | – | – | – | – | – | – | –
COc1ccc(N2C(=O)C(c3ccccc3OC)=CC2(O)c2ccc([N+](=O)[O-])cc2)cc1 (stereo not drawn) [compound 50, 5-hydroxy-3-(2-methoxyphenyl)-1-(4-methoxyphenyl)-5-(4-nitrophenyl)-1H-pyrrol-2(5H)-one] | reduced E2-induced luciferase activity | – | 6.17 ± 2.66 µM | > 10 µM | – | – | – | –

Source: publication PMC9655618 (Cancers, 2022)
